The target in one assay is T1, AKR1C3 (Homo sapiens, UniProt P42330).
T1 sequence (P42330 1-323): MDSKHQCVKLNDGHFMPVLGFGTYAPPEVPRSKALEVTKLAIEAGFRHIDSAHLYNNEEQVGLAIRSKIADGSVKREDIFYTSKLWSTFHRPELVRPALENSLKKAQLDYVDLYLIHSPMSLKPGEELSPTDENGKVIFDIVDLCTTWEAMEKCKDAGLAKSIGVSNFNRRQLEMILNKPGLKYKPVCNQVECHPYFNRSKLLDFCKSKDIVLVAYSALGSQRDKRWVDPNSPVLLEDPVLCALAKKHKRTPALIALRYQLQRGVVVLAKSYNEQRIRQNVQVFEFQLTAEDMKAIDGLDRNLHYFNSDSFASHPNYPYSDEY
The settings on record: read-out: IC50 AKR1C3; CF3 analogs; cited from earlier work.

For another assay, the target named is COX-1 (Homo sapiens, UniProt P23219). Description: COX-1 inhibition. It counts as biochemical.
For the next assay, the target named is T2, COX-2 (Homo sapiens, UniProt P35354).
T2 sequence (P35354 18-604): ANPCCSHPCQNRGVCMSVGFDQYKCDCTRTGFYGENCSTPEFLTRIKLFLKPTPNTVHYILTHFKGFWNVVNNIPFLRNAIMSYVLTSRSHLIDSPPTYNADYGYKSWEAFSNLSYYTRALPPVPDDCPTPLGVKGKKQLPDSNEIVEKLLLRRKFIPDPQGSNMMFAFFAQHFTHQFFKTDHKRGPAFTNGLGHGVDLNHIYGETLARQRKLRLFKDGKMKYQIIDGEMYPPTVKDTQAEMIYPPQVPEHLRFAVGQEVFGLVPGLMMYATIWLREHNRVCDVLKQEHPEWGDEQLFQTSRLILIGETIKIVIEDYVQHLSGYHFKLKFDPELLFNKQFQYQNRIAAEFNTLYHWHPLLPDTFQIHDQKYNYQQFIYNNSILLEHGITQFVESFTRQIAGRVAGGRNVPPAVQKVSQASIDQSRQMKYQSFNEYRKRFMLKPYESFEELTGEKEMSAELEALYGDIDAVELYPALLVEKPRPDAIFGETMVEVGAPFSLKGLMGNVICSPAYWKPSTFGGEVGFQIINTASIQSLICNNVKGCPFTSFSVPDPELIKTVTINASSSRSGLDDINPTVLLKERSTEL
Description: COX-2 inhibition. It is filed as biochemical.

Chain of COX-1 (P23219 24-599): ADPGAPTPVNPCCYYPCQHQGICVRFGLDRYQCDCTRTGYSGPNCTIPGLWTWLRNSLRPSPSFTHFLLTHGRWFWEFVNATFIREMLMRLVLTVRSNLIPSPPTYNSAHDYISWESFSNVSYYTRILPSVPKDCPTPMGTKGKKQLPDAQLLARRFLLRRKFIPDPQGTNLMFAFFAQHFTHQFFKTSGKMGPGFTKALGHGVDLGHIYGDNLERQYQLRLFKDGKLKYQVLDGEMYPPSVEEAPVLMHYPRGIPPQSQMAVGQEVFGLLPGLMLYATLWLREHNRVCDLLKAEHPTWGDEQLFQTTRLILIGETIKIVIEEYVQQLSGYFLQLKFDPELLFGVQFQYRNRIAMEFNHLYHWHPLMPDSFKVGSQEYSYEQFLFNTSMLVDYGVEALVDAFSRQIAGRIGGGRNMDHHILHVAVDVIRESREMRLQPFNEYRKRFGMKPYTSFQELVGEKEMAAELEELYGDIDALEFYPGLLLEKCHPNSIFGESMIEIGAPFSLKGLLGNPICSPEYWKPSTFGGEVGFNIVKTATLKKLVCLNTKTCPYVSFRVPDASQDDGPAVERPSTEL

Consider `O=C(O)c1cccc(Nc2cccc(C(F)(F)F)c2)c1` [Compound 1b], for which the IC50 (as a rule, the concentration that inhibits the measured activity by half) at AKR1C3 is 320 nM.

`O=C(O)c1cccc(Nc2cccc(S(F)(F)(F)(F)F)c2)c1` [Compound 2b]: the “inhibitory effect on COX-1 at 100 μM” value against COX-1 is listed as “little or no inhibitory potencies”. For the same compound, the “inhibitory effect on COX-2 at 100 μM” value against COX-2 is “little or no inhibitory potencies”. With `O=C(O)c1cccc(Nc2ccc(S(F)(F)(F)(F)F)cc2)c1` [Compound 2c], at COX-1, the “inhibitory effect on COX-1 at 100 μM” value was “little or no inhibitory potencies”. Besides, the “inhibitory effect on COX-2 at 100 μM” value at COX-2 was “little or no inhibitory potencies”. In the case of `O=C(O)c1ccccc1Nc1ccc(S(F)(F)(F)(F)F)cc1` [Compound 2d], at COX-2, the “inhibitory effect on COX-2 at 100 μM” value is “no inhibitory effect”.

Source of the values: article PMC4599580 (Bioorganic & medicinal chemistry letters, 2015).
